Test results as given in patent publication US6340755B1, “5H-Pyrano[2,3-d: 6,5-d']dipyrimidine derivatives having an antibacterial, antiviral and immuno-modulating activity” (Natural Drug Sciences LLC, priority 2000, dated 2002).

Experiments:
Format in all cases: cell-based
[1] = test system: primary culture of human lymphocytes; assay: Interferon-inducing activity in primary culture of human lymphocytes (immunoenzyme IFN determination); parameters: unit of the concentration uncertain; details: 24 hours of incubation
Description: Interferon synthesis induction by the claimed preparations was conducted on a primary culture of human lymphocytes (the cells in the human body are the main producers of interferon). To obtain a culture of the lymphocytes we used fresh blood (12 hours after collection) from healthy […] (not from the second group).
The lymphocyte concentration was determined after staining with methyl blue and the number of cells in the Goryaev chamber was calculated. […] The final concentration of the lymphocytes in the induction mixture was 3·10^6 cells/ml. The following controls were processed in parallel with the test samples:
The control and the experimental samples were incubated for 24 hours at 37° C. Following incubation the samples were centrifuged at 2000 g to settle out the cellular elements and the INF-containing supernatant was taken from the samples and analyzed for INF content. The cell residue was resuspended in the same volume of nutrient medium, stained with a vital dye—trypan blue—and the number of cells in the Goryaev chamber was calculated (as described above) to determine the cytotoxic activity of the preparations.
For the quantitative determination of INF in the control and experimental samples we used the ProCon IF2 Plus immunoenzyme test system sold by TOO Proteinovyi Kontur. To determine the quantity of interferon s in the sample we used a solid-phase immunoenzyme method utilizing horseradish peroxidase as the enzyme indicator. The activity of the bound peroxidase was measured using an automated photometer at a wavelength of 450 nm for the microplanchets with a microprocessor. […] On the basis of the results obtained we plotted a calibration curve that allowed us to obtain data expressed in International Units (IU) from the microprocessor of the automated photometer. The results of the analysis are expressed in IU of activity of INF per ml in the given induction system containing 3·10^6 lymphocytes/ml. Every experimental and control point was studied in 4 parallel runs.
The results obtained were analyzed statistically using the t-test and the confidence interval at p=0.05 was calculated. Analysis of the convergence of the results of the parallel tests were performed.

[2] = test system: C. trachomatis D323; assay: Activity on Chlamydia trachomatis in McCoy and L929 cell cultures; details: 48 hours; for number of cells in 100 fields (unchanged cells): cell control 8000, infected cell control 6400
Description: The antimicrobial activity of the claimed compounds was studied on C. trachomatis […]-a standard strain from the collection of the Department of Microbiology of the Pavlov St.-Petersburg State University. This strain was isolated from a patient with […] urethritis. […] In the work reported here we used McCoy and L929 cell cultures obtained from the Institute of Cytology of the Russian Academy of Sciences. The cells were grown in flasks of neutral glass in RPMI-1640 medium with an addition of 10% fetal calf serum. The experiment was placed in glass (toxicity-free) flat-bottomed flasks and covered with glass. The cells were introduced into the medium in a final concentration of 1·10 cells/ml. […] The sample was centrifuged at 2400 g for 60 min at room temperature and incubated at 37° C. for 2 hours. […] A parallel series of samples was run using medium without the cycloheximide in order to avoid its influence on the test substances. The samples were incubated for 48 hours in a CO2 incubator. […] The results were evaluated from the detection of chlamydia cytoplasmatic inclusion by an immunoenzyme method (MicroTrac Chlamydia trachomatis Direct Specimen Test) and from chlamydia antigens using CylaMonoScreen (Russian-British Joint Venture, 66 Regent's Park Road, London NW 1 7SX).

[3] = test system: Vero cell culture; assay: Control of compounds (toxicity of compounds) in the herpes experiment; details: 100 mg/l; Vero cells
Description: (§1) The antiviral activity was studied relative to the virus herpes simplex type I (VPG-I/Leningrad/248/88) by a standard method. The virus was grown on a reinoculated Vero cell culture obtained from the cell culture bank of the Institute of Cytology of the Russian Academy of Sciences.
To cells grown on medium RPMI-1640 with 10% calf serum and placed in the wells of a 96-well plate, the virus was added to give a final concentration of 10 particles/ml and […] We used 5 individual wells for every concentration tested. The plate was incubated for 60 min at 38° C. in a CO2 incubator. After incubation the virus was removed and new medium was added that contained the claimed compounds in the test concentrations.
4. Control of compounds (toxicity of compounds).

[4] = test system: McCoy and L929 cell cultures; assay: Control of the test compounds on toxicity relative to cell cultures in the chlamydia experiment; details: 100 mg/l
Description: In the work reported here we used McCoy and L929 cell cultures obtained from the Institute of Cytology of the Russian Academy of Sciences. The cells were grown in flasks of neutral glass in RPMI-1640 medium with an addition of 10% fetal calf serum. The experiment was placed in glass (toxicity-free) flat-bottomed flasks and covered with glass. The cells were introduced into the medium in a final concentration of 1·10 cells/ml. After a monolayer was obtained, standard infectious doses of chlamydia that had been maintained in a frozen state at −70° C. were added to test tubes. […] The sample was centrifuged at 2400 g for 60 min at room temperature and incubated at 37° C. for 2 hours. […] A parallel series of samples was run using medium without the cycloheximide in order to avoid its influence on the test substances. The samples were incubated for 48 hours in a CO2 incubator.

[5] = test system: herpes simplex type I (VPG-I/Leningrad/248/88); assay: Activity on herpes simplex virus: cytopathic action of the virus on Vero cells; details: 100 mg/l, 36 hours; for number of cells in 100 fields (unchanged cells): cell control 12000
Description: as §1
To cells grown on medium RPMI-1640 with 10% calf serum and placed in the wells of a 96-well plate, the virus was added to give a final concentration of 10 particles/ml and the claimed compounds dissolved in DMSO were added to give a final concentrations of 100, 10, and 1 mg/l. We used 5 individual wells for every concentration tested. The plate was incubated for 60 min at 38° C. in a CO2 incubator. After incubation the virus was removed and new medium was added that contained the claimed compounds in the test concentrations.
The results were evaluated according to the existence of a cytopathic action of the virus on the cells after 36 hours of incubation at 38° C. in the CO2 incubator.
The following controls were used in the experiment:
3. Control of antiviral activity of an antiviral preparation—acylcovir.
To access the cytopathic effect of the virus, we counted the number of unchanged cells in 100 fields formed by a specialized grid on the eyepiece of the inversion microscope.

Row | Structure (SMILES) | Interferon-inducing activity of the drug; content of INF in induction mixture ([1]; 1 (unit uncertain)) [IU/3 · 10^4 lymp/ml] | Interferon-inducing activity of the drug; content of INF in induction mixture ([1]; 10 (unit uncertain)) [IU/3 · 10^4 lymp/ml] | Interferon-inducing activity of the drug; content of INF in induction mixture ([1]; 100 (unit uncertain)) [IU/3 · 10^4 lymp/ml] | percent protection of the cells against infection ([2]; 30 mg/l) [%] | number of cells in 100 fields (unchanged cells) ([2]; 30 mg/l) | cytotoxicity of compound [3] | cytotoxicity of compound [4] | percent protection of the cells against the virus compared to the cell culture control [5] [%] | number of cells in 100 fields (unchanged cells) [5] | percent protection of the cells against infection ([2]; 100 mg/l) [%] | number of cells in 100 fields (unchanged cells) ([2]; 100 mg/l)
1 | Oc1nc(O)c2c(n1)Oc1nc(O)nc(O)c1C2 [IV] | 3.8 ± 1.5 | 29.9 ± 2.0 | 74.0 ± 1.8 | 40 | 7040 | Cytotoxic | cytotoxic |  |  |  | 
2 | O=[N+]([O-])c1ccc(C2c3c(O)nc(S)nc3Oc3nc(S)nc(O)c32)cc1 [IX, 4-6-Dihydroxy-2,8-dimercapto-5-(p-nitrophenyl)-5H-pyrano[2,3-d:6,5-d′]dipyrimidine] | 6.8 ± 2.0 | 28.0 ± 2.5 | 64.0 ± 1.8 |  |  |  |  | 40 | 4800 | 60 | 7360
3 | COc1nc(O)nc2c1C(c1ccc([N+](=O)[O-])cc1)c1c(OC)nc(O)nc1O2 [V, 2,8-Dihydroxy-4,6-dimethoxy-5-(4-nitrophenyl)-5H-pyrano[2,3-d:6,5-d′]dipyrimidine] | 10.5 ± 2.5 | 50.6 ± 1.8 | 108.9 ± 2.0 |  |  |  | cytotoxic | 50 | 6000 |  | 
4 | Oc1nc(O)c2c(n1)Oc1nc(O)nc(O)c1C2c1ccc(Br)cc1 [VII] | 5.6 ± 1.6 | 10.6 ± 1.8 | 22.2 ± 1.4 |  |  |  | cytotoxic | 30 | 3600 |  | 
5 | Oc1nc(O)c2c(n1)Oc1nc(O)nc(O)c1C2c1ccc(Cl)cc1 [VI] | 6.5 ± 1.4 | 36.9 ± 1.2 | 92.2 ± 2.1 |  |  |  |  | 50 | 6000 | 15 | 6560
